Assay results reported in patent US20260234115A1, “LIPID COMPOUNDS, COMPOSITIONS, AND USES THEREOF” (Liberate Bio, Inc., priority 2023, published 2026).
Marks after values point to notes of the source that are not given here.

Tested on: mouse organs
Test: In vivo activity screening in mice: organ mean total flux (p/s) of luciferase activity after injection of F2 LNP pools (Table 6, FIG. 7A-7C)
Details: luciferase mRNA
Method: Small rodent biodistribution studies were performed in mice (e.g., C57BL/6J, Balb-c, CD-1, etc.). For evaluating LNP biodistribution and tissue activity upon systemic administration, C57BL/6J mice received dose administration by single intravenous injection via tail vein with LNP formulations (individual or pooled) in PBS, at different dose (0.25-3 mg/kg) levels of firefly luciferase mRNA. At predetermined time points (4-6 hours post-injection), the animals were anesthetized via isoflurane and subjected to in-life imaging sessions for bioluminescence using an In Vivo Imaging System (IVIS). All animals were dosed with D-Luciferin at 15 mg/mL via subcutaneous (SC) injection at 0.2 mL/animal. Animals had their abdomen hair shaved using an animal trimmer. They were then placed so their shaved belly faced up toward the IVIS camera. Whole body imaging sessions were performed 10-15 minutes following D-Luciferin administration.
For in detail organ distribution and activity of LNP formulations, ex vivo imaging sessions were also performed. All animals received SC D-Luciferin and were then euthanized by isoflurane overdose, followed by cardiac perfusion with saline. Following perfusion, the organs were collected and subjected to IVIS imaging for luminescence within 10-15 minutes of D-Luciferin injection.
All IVIS images were processed with a computer software to identify the regions of interests for individual organs to detect the total flux (p/s) values as luminescence quantification. Then the total flux values were graphed to evaluate the in vivo activity in each collected organ.
Small rodent biodistribution studies were performed in mice according to the General Study Protocols in Example 3(a). LNPs incorporating lipid compounds were prepared in Formulation F2, with MC3 as lipid compound (Cayman Chemical) prepared using Formulation F2 for comparison. LNP pools (with firefly luciferase mRNA encapsulated) were injected into mice at varying doses, and organ mean total flux (p/s) results (measuring luciferase activity) were then collected according to Example 3(a).
LNPs comprising MC3 used as a control and for cross-mouse comparison. Dose is in mg/kg; LC is Lipid Compound according to Table 1.
Additional screening results for Compounds 7, 13, 14, 26, 33, 38, 39, 40, 48, 60, 61, 89, 103, and 109 in spleen, femur, and muscle are shown in FIG. 7A, FIG. 7B, and FIG. 7C, with MC3 as a used as a control for comparison.

Row | SMILES | Organ Mean Total Flux Femur (Mouse 5, dose 0.5 mg/kg) | Organ Mean Total Flux Heart (Mouse 5, dose 0.5 mg/kg) | Organ Mean Total Flux Kidney (Mouse 5, dose 0.5 mg/kg) | Organ Mean Total Flux Liver (Mouse 5, dose 0.5 mg/kg) | Organ Mean Total Flux Lung (Mouse 5, dose 0.5 mg/kg) | Organ Mean Total Flux Muscle (Mouse 5, dose 0.5 mg/kg) | Organ Mean Total Flux Pancreas (Mouse 5, dose 0.5 mg/kg) | Organ Mean Total Flux Spleen (Mouse 5, dose 0.5 mg/kg) | Organ Mean Total Flux Femur (Mouse 11, dose 0.5 mg/kg) | Organ Mean Total Flux Heart (Mouse 11, dose 0.5 mg/kg) | Organ Mean Total Flux Kidney (Mouse 11, dose 0.5 mg/kg) | Organ Mean Total Flux Liver (Mouse 11, dose 0.5 mg/kg) | Organ Mean Total Flux Lung (Mouse 11, dose 0.5 mg/kg) | Organ Mean Total Flux Muscle (Mouse 11, dose 0.5 mg/kg) | Organ Mean Total Flux Pancreas (Mouse 11, dose 0.5 mg/kg) | Organ Mean Total Flux Spleen (Mouse 11, dose 0.5 mg/kg) | also measured
1 | CCCCCCCCCC(C)OC(=O)CCCCCCC(=O)OCC(COC(=O)CCCCCCC(=O)OC(C)CCCCCCCCC)(COC(=O)CCCCCCC(=O)OC(C)CCCCCCCCC)COC(=O)CCC(CCCCCC)OC(=O)NCCN1CCCC1 (stereo not shown) [Compound 41, O1-[2,2-bis[[8-(1-methyldecoxy)-8-oxo-octanoyl]oxymethyl]-3-[4-(2-pyrrolidin-1-ylethylcarbamoyloxy)decanoyloxy]propyl]O8-(1-methyldecyl) octanedioate] | 3.8 p/s (×10^6) | 2.2 p/s (×10^6) | 2.8 p/s (×10^6) | 3493 p/s (×10^6) | 18.0 p/s (×10^6) | 10.0 p/s (×10^6) | 0.8 p/s (×10^6) | 2.5 p/s (×10^6) |  |  |  |  |  |  |  |  | 
2 | CCCCCCCCCC(C)OC(=O)CCCCCC(=O)OCC(COC(=O)CCCCCC(=O)OC(C)CCCCCCCCC)(COC(=O)CCCCCC(=O)OC(C)CCCCCCCCC)COC(=O)CCC(CCCCCC)OC(=O)NCCN1CCCC1 (stereo not shown) [Compound 42, O1-[2,2-bis[[7-(1-methyldecoxy)-7-oxo-heptanoyl]oxymethyl]-3-[4-(2-pyrrolidin-1-ylethylcarbamoyloxy)decanoyloxy]propyl]O7-(1-methyldecyl) heptanedioate] | 6.2 p/s (×10^6) | 1.7 p/s (×10^6) | 1.9 p/s (×10^6) | 1778 p/s (×10^6) | 13.4 p/s (×10^6) | 25.8 p/s (×10^6) | 1.8 p/s (×10^6) | 4.5 p/s (×10^6) |  |  |  |  |  |  |  |  | 
3 | CCCC/C=C\CCOC(=O)CCCCCCC(=O)OCC(COC(=O)CCCCCCC(=O)OCC/C=C\CCCC)(COC(=O)CCCCCCC(=O)OCC/C=C\CCCC)COC(=O)CCC(CCCCCC)OC(=O)NCCN1CCCC1 (stereo not shown) [Compound 43, O8-[2,2-bis[[8-[(Z)-oct-3-enoxy]-8-oxo-octanoyl]oxymethyl]-3-[4-(2-pyrrolidin-1-ylethylcarbamoyloxy)decanoyloxy]propyl]O1-[(Z)-oct-3-enyl]octanedioate] | 3.1 p/s (×10^6) | 0.7 p/s (×10^6) | 1.6 p/s (×10^6) | 669.3 p/s (×10^6) | 12.8 p/s (×10^6) | 8.0 p/s (×10^6) | 2.0 p/s (×10^6) | 9.5 p/s (×10^6) |  |  |  |  |  |  |  |  | 
4 | CCCC/C=C\CCOC(=O)CCCCCC(=O)OCC(COC(=O)CCCCCC(=O)OCC/C=C\CCCC)(COC(=O)CCCCCC(=O)OCC/C=C\CCCC)COC(=O)CCC(CCCCCC)OC(=O)NCCN1CCCC1 (stereo not shown) [Compound 44, O7-[2,2-bis[[7-[(Z)-oct-3-enoxy]-7-oxo-heptanoyl]oxymethyl]-3-[4-(2-pyrrolidin-1-ylethylcarbamoyloxy)decanoyloxy]propyl]O1-[(Z)-oct-3-enyl]heptanedioate] |  |  |  |  |  |  |  |  | 5.6 p/s (×10^6) | 0.7 p/s (×10^6) | 1.3 p/s (×10^6) | 415.7 p/s (×10^6) | 6.5 p/s (×10^6) | 22.6 p/s (×10^6) | 3.1 p/s (×10^6) | 36.0 p/s (×10^6) | 
5 | CCCCC/C=C\CCCOC(=O)CCCCCC(=O)OCC(COC(=O)CCCCCC(=O)OCCC/C=C\CCCCC)(COC(=O)CCCCCC(=O)OCCC/C=C\CCCCC)COC(=O)CCC(CCCCCC)OC(=O)NCCN1CCCC1 (stereo not shown) [Compound 45, O7-[2,2-bis[[7-[(Z)-dec-4-enoxy]-7-oxo-heptanoyl]oxymethyl]-3-[4-(2-pyrrolidin-1ylethylcarbamoyloxy)decanoyloxy]propyl]O1-[(Z)-dec-4-enyl]heptanedioate] |  |  |  |  |  |  |  |  | 1.0 p/s (×10^6) | 1.1 p/s (×10^6) | 0.9 p/s (×10^6) | 809.3 p/s (×10^6) | 7.2 p/s (×10^6) | 5.6 p/s (×10^6) | 0.5 p/s (×10^6) | 6.0 p/s (×10^6) | 
6 | CCCCC/C=C\CCCOC(=O)CCCCCCC(=O)OCC(COC(=O)CCCCCCC(=O)OCCC/C=C\CCCCC)(COC(=O)CCCCCCC(=O)OCCC/C=C\CCCCC)COC(=O)CCC(CCCCCC)OC(=O)NCCN1CCCC1 (stereo not shown) [Compound 46, 8,8′-di((Z)-dec-4-en-1-yl) O′1,O1-(2-(((8-(((Z)-dec-4-en-1-yl)oxy)-8-oxooctanoyl)oxy)methyl)-2-(((4-(((2-(pyrrolidin-1-yl)ethyl)carbamoyl)oxy)decanoyl)oxy)methyl)propane-1,3-diyl) di(octanedioate)] |  |  |  |  |  |  |  |  | 1.8 p/s (×10^6) | 4.1 p/s (×10^6) | 2.1 p/s (×10^6) | 3107 p/s (×10^6) | 17.8 p/s (×10^6) | 4.2 p/s (×10^6) | 0.9 p/s (×10^6) | 1.8 p/s (×10^6) | 
7 | CCCCC/C=C\CCCOC(=O)CCCCC(=O)OCC(COC(=O)CCCCC(=O)OCCC/C=C\CCCCC)(COC(=O)CCCCC(=O)OCCC/C=C\CCCCC)COC(=O)CCC(CCCCCC)OC(=O)NCCN1CCCC1 (stereo not shown) [Compound 47, O6-[2,2-bis[[6-[(Z)-dec-4-enoxy]-6-oxo-hexanoyl]oxymethyl]-3-[4-(2-pyrrolidin-1ylethylcarbamoyloxy)decanoyloxy]propyl]O1-[(Z)-dec-4-enyl]hexanedioate] | 15.1 p/s (×10^6) | 1.7 p/s (×10^6) | 2.5 p/s (×10^6) | 974.3 p/s (×10^6) | 25.7 p/s (×10^6) | 62.4 p/s (×10^6) | 4.4 p/s (×10^6) | 67.0 p/s (×10^6) |  |  |  |  |  |  |  |  | 
8 | CCCCC/C=C\CCOC(=O)CCCC(=O)OCC(COC(=O)CCCC(=O)OCC/C=C\CCCCC)(COC(=O)CCCC(=O)OCC/C=C\CCCCC)COC(=O)CCC(CCCCCC)OC(=O)NCCN1CCCC1 (stereo not shown) [Compound 49, O5-[2,2-bis[[5-[(Z)-non-3-enoxy]-5-oxo-pentanoyl]oxymethyl]-3-[4-(2-pyrrolidin-1-ylethylcarbamoyloxy)decanoyloxy]-propyl]O1-[(Z)-non-3-enyl]pentanedioate] |  |  |  |  |  |  |  |  |  |  |  |  |  |  |  |  | Organ Mean Total Flux Femur (Mouse 13, dose 0.5 mg/kg): 10.2 p/s (×10^6); Organ Mean Total Flux Heart (Mouse 13, dose 0.5 mg/kg): 0.5 p/s (×10^6); Organ Mean Total Flux Kidney (Mouse 13, dose 0.5 mg/kg): 1.4 p/s (×10^6); Organ Mean Total Flux Liver (Mouse 13, dose 0.5 mg/kg): 185.5 p/s (×10^6); Organ Mean Total Flux Lung (Mouse 13, dose 0.5 mg/kg): 11.8 p/s (×10^6); Organ Mean Total Flux Muscle (Mouse 13, dose 0.5 mg/kg): 2.9 p/s (×10^6); Organ Mean Total Flux Pancreas (Mouse 13, dose 0.5 mg/kg): 7.5 p/s (×10^6); Organ Mean Total Flux Spleen (Mouse 13, dose 0.5 mg/kg): 57.1 p/s (×10^6)
9 | CCCCCCCCCOC(=O)CCCCC(=O)OCC(COC(=O)CCCCC(=O)OCCCCCCCCC)(COC(=O)CCCCC(=O)OCCCCCCCCC)COC(=O)CCC(CCCCCC)OC(=O)NCCN1CCCC1 (stereo not shown) [Compound 50, O6-[2,2-bis[(6-nonoxy-6-oxo-hexanoyl)oxymethyl]-3-[4-(2-pyrrolidin-1-ylethylcarbamoyloxy)decanoyloxy]propyl]O1-nonyl hexanedioate] |  |  |  |  |  |  |  |  |  |  |  |  |  |  |  |  | Organ Mean Total Flux Femur (Mouse 3, dose 1.0 mg/kg): 3.8 p/s (×10^6); Organ Mean Total Flux Heart (Mouse 3, dose 1.0 mg/kg): 3.1 p/s (×10^6); Organ Mean Total Flux Kidney (Mouse 3, dose 1.0 mg/kg): 2.1 p/s (×10^6); Organ Mean Total Flux Liver (Mouse 3, dose 1.0 mg/kg): 2413 p/s (×10^6); Organ Mean Total Flux Lung (Mouse 3, dose 1.0 mg/kg): 12.1 p/s (×10^6); Organ Mean Total Flux Muscle (Mouse 3, dose 1.0 mg/kg): 3.8 p/s (×10^6); Organ Mean Total Flux Pancreas (Mouse 3, dose 1.0 mg/kg): 8.8 p/s (×10^6); Organ Mean Total Flux Spleen (Mouse 3, dose 1.0 mg/kg): 9.0 p/s (×10^6); Organ Mean Total Flux Femur (Mouse 13, dose 0.5 mg/kg): 1.2 p/s (×10^6); Organ Mean Total Flux Heart (Mouse 13, dose 0.5 mg/kg): 1.0 p/s (×10^6); Organ Mean Total Flux Kidney (Mouse 13, dose 0.5 mg/kg): 0.7 p/s (×10^6); Organ Mean Total Flux Liver (Mouse 13, dose 0.5 mg/kg): 569.7 p/s (×10^6); Organ Mean Total Flux Lung (Mouse 13, dose 0.5 mg/kg): 4.7 p/s (×10^6); Organ Mean Total Flux Muscle (Mouse 13, dose 0.5 mg/kg): 2.3 p/s (×10^6); Organ Mean Total Flux Pancreas (Mouse 13, dose 0.5 mg/kg): 1.5 p/s (×10^6); Organ Mean Total Flux Spleen (Mouse 13, dose 0.5 mg/kg): 4.7 p/s (×10^6)
10 | CCCCCCC(CCCC)COC(=O)CCCCCC(=O)OCC(COC(=O)CCCCCC(=O)OCC(CCCC)CCCCCC)(COC(=O)CCCCCC(=O)OCC(CCCC)CCCCCC)COC(=O)CCC(CCCCCC)OC(=O)NCCN1CCCC1 (stereo not shown) [Compound 51, O7-[2,2-bis[[7-(2-butyloctoxy)-7-oxo-heptanoyl]oxymethyl]-3-[4-(2-pyrrolidin-1ylethylcarbamoyloxy)decanoyloxy]propyl]O1-(2-butyloctyl) heptanedioate] |  |  |  |  |  |  |  |  |  |  |  |  |  |  |  |  | Organ Mean Total Flux Femur (Mouse 3, dose 1.0 mg/kg): 7.5 p/s (×10^6); Organ Mean Total Flux Heart (Mouse 3, dose 1.0 mg/kg): 16.0 p/s (×10^6); Organ Mean Total Flux Kidney (Mouse 3, dose 1.0 mg/kg): 7.2 p/s (×10^6); Organ Mean Total Flux Liver (Mouse 3, dose 1.0 mg/kg): 15467 p/s (×10^6); Organ Mean Total Flux Lung (Mouse 3, dose 1.0 mg/kg): 59.6 p/s (×10^6); Organ Mean Total Flux Muscle (Mouse 3, dose 1.0 mg/kg): 16.5 p/s (×10^6); Organ Mean Total Flux Pancreas (Mouse 3, dose 1.0 mg/kg): 4.9 p/s (×10^6); Organ Mean Total Flux Spleen (Mouse 3, dose 1.0 mg/kg): 9.7 p/s (×10^6)
